Results reported in patent US20080139628A1 (ARENA PHARMACEUTICALS, INC., priority 2004, published 2008).

How the values were obtained:
[1] = tested on: niacin-induced flushing in mice; test: Block of niacin-induced flushing in mice, Laser Dopler; type: in vivo; details: for change from baseline (flush) at 3 minutes / change above baseline (flush) at 15 minutes: mice given compound about 10 minutes before niacin; for change from baseline (flush) at 3 minutes: 3 minutes after niacin; for change above baseline (flush) at 15 minutes: at/within 15 minutes after niacin
Procedure: Flushing was measured using a Laser Dopler.
In these experiments, the control group contained anesthetized mice that were administered niacin alone and flushing above baseline was measured over time. […]

[2] = tested on: free fatty acid release; test: NEFA competition: free fatty acids in blood of mice (NEFA-C assay kit); type: in vivo; details: for concentration of free fatty acid: blood after 10 minutes (vehicle sample 0.9 mM)
Procedure: After 10 minutes the mice were euthanized and blood was collected. The blood samples were processed and tested for free fatty acid release using the non-esterified fatty-acid (NEFA) assay (the NEFA-C assay kit from Waco Chemicals USA, Richmond, Va.).

[3] = tested on: dysmenorrhea or painful menstruation; details: 80 women, 100 mg niacin twice daily, then every 2 to 3 hours during heavy cramps; cited from earlier work
[4] = tested on: mice; test: Flush in response to PGD2 in mice treated with niacin receptor partial agonist; type: in vivo; details: mice pretreated with Compound 1 and niacin
Procedure: After re-establishment of baseline, PGD2 was administered and flushing was recorded. […] Baseline was then re-established at 20% above baseline and PGD2 was administered.

## O=C(O)c1cc(Cc2cccc(Br)c2)[nH]n1 [Compound 4, 5-(3-Bromo-benzyl)-1H-pyrazole-3-carboxylic acid]
[1]
  change from baseline (flush) at 3 minutes: 15%
  change above baseline (flush) at 15 minutes: about 30%

## O=C(O)c1cc(Cc2cccc(Cl)c2)[nH]n1 [Compound 3, 5-(3-Chloro-benzyl)-1H-pyrazole-3-carboxylic acid]
[1]
  change from baseline (flush) at 3 minutes: about 18%
  change above baseline (flush) at 15 minutes: about 13%

## O=C(O)c1cc(Cc2cccc(F)c2)[nH]n1 [Compound 2, 5-(3-Fluoro-benzyl)-1H-pyrazole-3-carboxylic acid]
[1]
  change from baseline (flush) at 3 minutes: 0%
  change above baseline (flush) at 15 minutes: about 15%

## C1Cc2[nH]nc(-c3nnn[nH]3)c2C1 [Compound 1, 3-(1H-Tetrazol-5-yl)-1,4,5,6-tetrahydro-cyclopentapyrazole]
[1]
  change from baseline (flush) at 3 minutes: 10%
  change above baseline (flush) at 15 minutes: about 20%
[1]; mice, partial agonist given prior to niacin
  flushing induced by niacin: significantly reduced
[2]; Compound 1 plus niacin
  interference with the reduction in free fatty acids induced by niacin: does not interfere
  concentration of free fatty acid: 0.38 mM

## O=C(O)c1cccnc1 [niacin, nicotinic acid, reference compound]
[3]
  subjects who experienced significant relief: About 90%
[1]; anesthetized mice, niacin alone
  time after which mice began to flush: 1.5 min
[2]; vehicle plus niacin
  concentration of free fatty acid: 0.4 mM

## CCCCC[C@H](O)/C=C/[C@H]1C(=O)C[C@H](O)[C@@H]1C/C=C\CCCC(=O)O [PGD2, prostaglandin D2]
[4]
  time of flush peak after PGD2 administration: about 6 minutes
[4]; baseline re-established at 20% above baseline
  time after PGD2 administration at which flushing began: about 1.5 minutes
[4]; about 6 minutes after PGD2
  flush peak, % of the original baseline: about 70%
